Test results as given in patent publication US20110268800A1, “Unsaturated fatty acids as thrombin inhibitors” (LTS Lohmann Therapie-Systeme AG, priority 2005, published 2011).

Target: thrombin (Homo sapiens, UniProt P00734)
Experiment: thrombin inhibition test, amidolytic assay with Chromozym TH
Assay type: biochemical
Settings: for Inhibition (%): thrombin, substrate Chromozym TH, pH 8.0, room temperature, 15 min preincubation; for thrombin-inhibiting action of fatty acids identified in the plant drugs (in words): free fatty acids separated from hexane/isopropanol (3:2) lipid extracts by preparative thin layer chromatography
Procedure: As the testing system, an amidolytic assay with Chromozym TH (tosylglycyl-prolyl-arginine-4-nitroanilide acetate) was used as a substrate for thrombin. The principle of the test system is based on the cleavage of the substrate by thrombin, and on the release of p-nitroaniline, which absorbs at a wavelength of 405 nm. The absorption increase over time was detected photometrically. The inhibition of thrombin was calculated by a comparison between the linear initial phase of the absorption increase of the test samples containing the extract, and the blank value.
For the thrombin inhibition test, the method according to Sturzebecher was employed, with the exception of the enzyme concentration (Sturzebecher, J., Vieweg, H. (1995). Structure-Activity Relationships of Inhibitors derived from 3-Amidinophenyl-alanine. J Enzyme Inhib, 9, 87-99). • Buffer: 608 mg Tris buffer and 900 mg NaCl were dissolved in 100 ml bidistilled water. The pH value of the buffer was subsequently set to 8.0, using HCl (2 mMol) (concentrations in the sample: 0.05 mol/1 Tris HCL, 0.154 mol/1 NaCl). The substance to be examined was dissolved in ethanol (5% total volume). This was followed by filling up with buffer. • Enzyme: 1 mg/ml (=50 NIH—U/ml) thrombin was dissolved in 0.9% NaCl solution (stock solution). To prepare the sample, this solution was diluted 1:100 with a solution of 0.9% NaCL and 1% bovine serum albumin. • Substrate: 6.6 mg Chromozym TH was dissolved in 10 ml bidistilled water (concentration=1 mmol/l). • Measurement sample: 200 μl buffer/substance • 25 μl substrate • 50 μl enzyme • Conditions: Room temperature • Implementation: Buffer and enzyme are added together by pipetting and incubated for 15 min. The reaction was started by adding the substrate. • For measuring the absorption, a plate reader, iEMS Reader MF from Labsystems, was used with 96-well microtitre plates. The measurements took place at a wavelength of 405 nm, every 10 seconds, 60 measurements. Prior to start of the measurements, the microtitre plate was shaken at 600 rpm. • Evaluation: The measurements were recorded by means of iEMS Accent Software, and evaluated with Microsoft Excel 97 Software. • To calculate inhibition, the slope in the linear initial phase of the absorption increase in the samples containing the substance to be examined was compared with the slope of the absorption increase in the blank sample. For evaluation, the first 5 measured values were left out of consideration since the bubbles forming on account of the mixing can lead to problems at the beginning of the reaction. The inhibition is calculated as follows:
Inhibition=100−(slopeInhibitor/slopeBlank value*100)

| Inhibition (%) (test concentration not printed) | Compound | also measured |
| --- | --- | --- |
| 7.8% | CCCCCCCC/C=C\CCCCCCCCCCCC(=O)O [Eruca acid, 13-cis-Docosaenoic acid] | – |
| 71.7% | CCCCC/C=C\C/C=C\CCCCCCCC(=O)O [Linoleic acid, 9-cis,12-cis-Octadecadienoic acid] | thrombin-inhibiting action of fatty acids identified in the plant drugs (in words): responsible for the thrombin-inhibiting action |
| 75.5% | CC/C=C\C/C=C\C/C=C\CCCCCCCC(=O)O [Linolenic acid, 9-cis, 12-cis, 15-cis-Octadecatrienoic acid] | – |
| 0.7% | CCCCCCCC(=O)O [Octanoic acid] | – |
| 65.8% | CCCCCCCC/C=C\CCCCCCCC(=O)O [Oleic acid, 9-cis-Octadecenoic acid] | thrombin-inhibiting action of fatty acids identified in the plant drugs (in words): identified as the thrombin-inhibiting substances; Inhibition (%) (test concentration not printed, listed as oleic acid): 66% |
| 1.4% | CCCCCCCCCCCCCCCC(=O)O [Palmitic acid, Hexadecanoic acid] | thrombin-inhibiting action of fatty acids identified in the plant drugs (in words): without effect |
| 2.4% | CC/C=C\C/C=C\C/C=C\C/C=C\CCCCC(=O)O [Stearidonic acid, 6-cis, 9-cis, 12-cis, 15-cis-Octadecatetraenoic acid] | – |

Continued, compound first:

| Compound | Inhibition (%) (test concentration not printed) | also measured |
| --- | --- | --- |
| CCCCCC[C@@H](O)C/C=C/CCCCCCCC(=O)O (stereo in doubt) [Ricinoleic acid, 12-Hydroxy-9-cis-octadecenoic acid] | 43.9% | – |
| C=CCCCCCCCC(=O)O [9-Decenoic acid] | −3.7% | – |
| CCCCC/C=C\C/C=C\C/C=C\C/C=C\CCCC(=O)O [Arachidonic acid, 5-cis, 8-cis, 11-cis, 14-cis-Eicosatetraenoic acid] | 75.2% | – |
| CC/C=C\C/C=C\C/C=C\C/C=C\C/C=C\C/C=C\CCC(=O)O [Docosahexaenoic acid, 4-cis, 7-cis, 10-cis, 13-cis, 16-cis, 19-cis-Docosahexaenoic acid] | −2.5% | – |
| CC/C=C\C/C=C\C/C=C\C/C=C\C/C=C\CCCC(=O)O [Eicosapentaenoic acid, 5-cis, 8-cis, 11-cis, 14-cis, 17-cis-Eicosapentaenoic acid] | −1.0% | – |
| CC/C=C\C/C=C\C/C=C\CCCCCCCCCC(=O)O [Eicosatrienoic acid, 11-cis, 14-cis, 17-cis-Eicosatrienoic acid] | 76.0% | – |
| CCCCCCCC/C=C\CCCCCCCCCC(=O)O [Eicosenoic acid, 11-cis-Eicosenoic acid] | 60.7% | thrombin-inhibiting action of fatty acids identified in the plant drugs (in words): identified as the thrombin-inhibiting substances |
| CCCCCCCC/C=C/CCCCCCCC(=O)O [Elaidinic acid, 9-trans-Octadecenoic acid] | 7.4% | – |
| CCCCCC/C=C\CCCCCCCCCC(=O)O [Vaccenic acid, 11-cis-Octadecenoic acid] | 79.9% | Inhibition (%) (test concentration not given, listed as cis-vaccenic acid): 80% |
